Columns and labels:
[1] = target: T1, Serine/threonine-protein kinase pim-1 (Homo sapiens, UniProt P11309); assay: Inhibition of full-length human Pim-1 using RSRHSSYPAG as substrate incubated in presence of [gamma33P]ATP
Target sequence in this assay (P11309 whole entry): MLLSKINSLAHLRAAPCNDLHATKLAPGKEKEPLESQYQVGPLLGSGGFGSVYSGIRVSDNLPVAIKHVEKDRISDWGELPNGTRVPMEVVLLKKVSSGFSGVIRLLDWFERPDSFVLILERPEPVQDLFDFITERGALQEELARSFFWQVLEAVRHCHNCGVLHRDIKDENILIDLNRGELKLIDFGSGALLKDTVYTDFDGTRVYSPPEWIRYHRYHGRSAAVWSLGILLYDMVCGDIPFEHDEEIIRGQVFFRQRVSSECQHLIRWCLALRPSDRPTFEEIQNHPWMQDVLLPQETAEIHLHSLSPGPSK

[2] = target: T1, Serine/threonine-protein kinase pim-1; assay: Inhibition of full-length human Pim-1 using RSRHSSYPAG as substrate incubated in presence of [gamma33P]ATP and assessed as residual activity at 10 uM relative to control
Target sequence in this assay (P11309 whole entry, looked up): as the sequence (P11309 whole entry) above

MOLM-13 [3] = assay: Induction of apoptosis in human MOLM-13 cells incubated for 72 hrs and assessed as presence of apoptotic nuclei; format: functional, cell-based; conditions: MOLM-13, 72 h
[4] = target: T1, Serine/threonine-protein kinase pim-1; assay: Inhibition of full-length human Pim-1 using RSRHSSYPAG as substrate incubated in presence of [gamma33P]ATP and assessed as residual activity at 1 uM relative to control
Target sequence in this assay (P11309 whole entry, looked up): as the sequence (P11309 whole entry) above

MOLM-13 [5] = assay: Antiproliferative activity against human MOLM-13 cells measured after 72 hrs by WST-1 assay; format: functional, cell-based; conditions: MOLM-13, 72 h
MOLM-13 [6] = assay: Antiproliferative activity against human MOLM-13 cells measured after 24 hrs by WST-1 assay; format: functional, cell-based; conditions: MOLM-13, 24 h
[7] = Cytotoxicity against rat NRK cells measured after 72 hrs by WST-1 assay; format: toxicity, cell-based

Row | IC50 [1] [µM] | Activity [2] [%] | EC50 (MOLM-13 [3]) [µM] | Activity [4] [%] | EC50 (MOLM-13 [5]) [µM] | EC50 (MOLM-13 [6]) [µM] | Structure (SMILES) | EC50 at 72 h [7] [µM]
1 | 0.125 | 7 | > 250 | 23 | 2.5 |  | NC(=O)c1cc2[nH]ncc2c2c1ncc1ccccc12 | 
2 | 0.031 | 1.5 | 4.6 | 5.3 | 1.7 | 2.9 | C=Cc1n[nH]c2cc([N+](=O)[O-])c3ncc4ccccc4c3c12 | 24
3 |  | 18 | > 250 | 43 | 1.2 |  | FC(F)(F)c1cc2[nH]ncc2c2c1ncc1ccccc12 | 
4 |  | 29 | > 250 | 77 | 62 | > 250 | O=C(O)c1cc2[nH]ncc2c2c1ncc1ccccc12 | 

Second part, the compound before the results:

Row | Structure (SMILES) | IC50 [1] [µM] | Activity [2] [%] | EC50 (MOLM-13 [3]) [µM] | Activity [4] [%] | EC50 (MOLM-13 [5]) [µM] | EC50 (MOLM-13 [6]) [µM] | EC50 at 72 h [7] [µM]
5 | O=[N+]([O-])c1cc2[nH]nc(I)c2c2c1ncc1ccccc12 | 0.05 | 1.4 | 6.6 | 8.6 | 1.7 | 3.5 | 28
6 | O=[N+]([O-])c1cc2[nH]ncc2c2c1ncc1ccccc12 |  |  | 3.7 |  | 0.2 | 0.8 | > 30
7 | COC(=O)c1cc2[nH]ncc2c2c1ncc1ccccc12 |  | 21 | 61 | 38 | 30 | 50 | 

Source: ChEMBL document CHEMBL5104151, “Synthesis of new pyrazolo[4,3-a]phenanthridine Pim-1 inhibitors and evaluation of their cytotoxic activity towards the MOLM-13 acute myeloid leukemia cell line” (Bioorg Med Chem Lett, 2022)
